Laboratory results from patent US20250154138A1, “Small Molecule IL-17A Modulators” (BeiGene, Ltd., priority 2022, published 2025).

Experiments:
[1] = target: human IL-17A / human IL-17RA (Homo sapiens (Human), UniProt Q16552); experiment: Human IL-17A biochemical assay (HTRF, blocking of IL-17A binding to IL-17RA); conditions: 0.4 nM IL-17A, 0.3 nM IL-17RA, max compound concentration 10 uM
Outline: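 Steps: compound dilutions (max 10 uM, 10 points) pre-incubate with 0.4 nM IL-17A for 3 h at RT; 0.3 nM IL-17RA added for 1 h; HTRF antibody pair added for 1 h; fluorescence ratio read and percent inhibition fitted to a four-parameter logistic for IC50.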

[2] = system: IL-17-induced GROα secretion from HT-29 cells; experiment: GROα release assay in human colorectal adenocarcinoma epithelial cell (HT-29, ELISA); type: cell-based; conditions: Homo sapiens, HT-29, 48 h, 10 ng/mL IL-17A, highest concentration 10 μM, read-out: Cellular assay HT29 cell/CXCL1 IC50
Outline: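 IC50 values come from four-parameter fits of GROα levels, quantified by ELISA (450 nm, standard curve) in supernatants. Compounds, 4-fold serially diluted from 10 μM, were mixed 15 min with IL-17A (10 ng/mL final) before 48 h incubation with HT-29 cells at 37°C.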

human IL-17A / human IL-17RA, sequence (Q16552 24-155): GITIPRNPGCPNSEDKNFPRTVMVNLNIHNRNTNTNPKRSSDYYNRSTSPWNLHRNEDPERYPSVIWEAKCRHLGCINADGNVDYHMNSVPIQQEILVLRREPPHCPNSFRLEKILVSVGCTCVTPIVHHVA

| SMILES | IC50 [1] | IC50 [2] |
| --- | --- | --- |
| CNC(=O)C1(N2CC(C)NC2=O)Cc2ccc(NC(=O)[C@@H](NC(=O)c3ccnn3C)C3CCCCC3)cc2C1 (stereo partly drawn) [Example 1, N-((1S)-1-cyclohexyl-2-((2-(4-methyl-2-oxoimidazolidin-1-yl)-2-(methylcarbamoyl)-2,3-dihydro-1H-inden-5-yl)amino)-2-oxoethyl)-1-methyl-1H-pyrazole-5-carboxamide] | 0.379 µM | 0.897 µM |
| CNC(=O)C1(N2CC3(CC3)CNC2=O)Cc2ccc(NC(=O)[C@@H](NC(=O)C(F)(F)c3ccc(C#N)n3C)C3CCCCC3)cc2C1 (stereo partly drawn) [Example 176, 5-((S)-2-(2-(5-cyano-1-methyl-1H-pyrrol-2-yl)-2,2-difluoroacetamido)-2-cyclohexylacetamido)-N-methyl-2-(6-oxo-5,7-diazaspiro[2.5]octan-5-yl)-2,3-dihydro-1H-indene-2-carboxamide] | 0.0699 µM | 0.29 µM |
| Cc1nonc1C(=O)N[C@H](C(=O)Nc1ccc2c(c1)CC(C(=O)NC1(c3ccccc3F)CC1)(N1CC3(CC3)CNC1=O)C2)C1CCC(F)(F)CC1 (stereo partly drawn) [Example 232, N-((1S)-1-(4,4-difluorocyclohexyl)-2-((2-((1-(2-fluorophenyl)cyclopropyl)carbamoyl)-2-(6-oxo-5,7-diazaspiro[2.5]octan-5-yl)-2,3-dihydro-1H-inden-5-yl)amino)-2-oxoethyl)-4-methyl-1,2,5-oxadiazole-3-carboxamide] | 0.117 µM | 0.158 µM |
| CCC1CCC(C(NC(=O)c2ccnn2C)C(=O)Nc2ccc3c(c2)CC(C(=O)NC)(N2CC4(CC4)CNC2=O)C3)CC1 (stereo not drawn) [Example 139, N-(1-(4-ethylcyclohexyl)-2-((2-(methylcarbamoyl)-2-(6-oxo-5,7-diazaspiro[2.5]octan-5-yl)-2,3-dihydro-1H-inden-5-yl)amino)-2-oxoethyl)-1-methyl-1H-pyrazole-5-carboxamide] | 0.01 µM | 0.0219 µM |
| Cc1ccccc1NC(=O)C1(N2C[C@@H](C(C)C)NC2=O)Cc2ccc(NC(=O)[C@@H](NC(=O)c3nonc3C)C(C3CC3)C3CC3)cc2C1 (stereo partly drawn) [Example 261, N-((2S)-1,1-dicyclopropyl-3-((2-((R)-4-isopropyl-2-oxoimidazolidin-1-yl)-2-(o-tolylcarbamoyl)-2,3-dihydro-1H-inden-5-yl)amino)-3-oxopropan-2-yl)-4-methyl-1,2,5-oxadiazole-3-carboxamide] | 0.058 µM | 0.143 µM |
| CC[C@H]1CC[C@H]([C@H](NC(=O)c2ccnn2C)C(=O)Nc2ccc3c(c2)CC(COC)(N2CC4(CC4)CNC2=O)C3)CC1 (stereo partly drawn) [Example 165, N-((1S)-1-((1r,4S)-4-ethylcyclohexyl)-2-((2-(methoxymethyl)-2-(6-oxo-5,7-diazaspiro[2.5]octan-5-yl)-2,3-dihydro-1H-inden-5-yl)amino)-2-oxoethyl)-1-methyl-1H-pyrazole-5-carboxamide] | 0.173 µM | 0.322 µM |
| CNC(=O)C1(N2CC3(CCC3)CNC2=O)Cc2ccc(NC(=O)[C@@H](NC(=O)c3ccnn3C)C(C3CC3)C3CC3)cc2C1 (stereo partly drawn) [Example 120, N-((2S)-1,1-dicyclopropyl-3-((2-(methylcarbamoyl)-2-(7-oxo-6,8-diazaspiro[3.5]nonan-6-yl)-2,3-dihydro-1H-inden-5-yl)amino)-3-oxopropan-2-yl)-1-methyl-1H-pyrazole-5-carboxamide] | 0.019 µM | 0.0724 µM |
| Cc1nonc1C(=O)N[C@H](C(=O)Nc1ccc2c(c1)CC(C(=O)NC1CCCC1)(N1C[C@@H](C(C)C)NC1=O)C2)C(C1CC1)C1CC1 (stereo partly drawn) [Example 282, N-((2S)-1-((2-(cyclopentylcarbamoyl)-2-((R)-4-isopropyl-2-oxoimidazolidin-1-yl)-2,3-dihydro-1H-inden-5-yl)amino)-3,3-dicyclopropyl-1-oxopropan-2-yl)-4-methyl-1,2,5-oxadiazole-3-carboxamide] | 0.0337 µM | 0.0953 µM |
| Cn1nccc1C(=O)N[C@H](C(=O)Nc1ccc2c(c1)CC(C(O)C(F)(F)F)(N1CC3(CC3)CNC1=O)C2)C1CCCCC1 (stereo partly drawn) [Example 194, N-((1S)-1-cyclohexyl-2-oxo-2-((2-(6-oxo-5,7-diazaspiro[2.5]octan-5-yl)-2-(2,2,2-trifluoro-1-hydroxyethyl)-2,3-dihydro-1H-inden-5-yl)amino)ethyl)-1-methyl-1H-pyrazole-5-carboxamide] | 0.0338 µM | 0.021 µM |
| Cc1nonc1C(=O)N[C@H](C(=O)Nc1ccc2c(c1)CC(C(=O)NCC(C)C1CCCCC1)(N1CC3(CC3)CNC1=O)C2)C1CCC(F)(F)CC1 (stereo partly drawn) [Example 185, N-((1S)-2-((2-((2-cyclohexylpropyl)carbamoyl)-2-(6-oxo-5,7-diazaspiro[2.5]octan-5-yl)-2,3-dihydro-1H-inden-5-yl)amino)-1-(4,4-difluorocyclohexyl)-2-oxoethyl)-4-methyl-1,2,5-oxadiazole-3-carboxamide] | 0.119 µM | 0.275 µM |
| CNC(=O)C1(N2CC3(CC3)CNC2=O)Cc2ccc(NC(=O)[C@@H](NC(=O)c3ccnn3C)C(C3CC3)C3CC3)cc2C1 (stereo partly drawn) [Example 114, N-((2S)-1,1-dicyclopropyl-3-((2-(methylcarbamoyl)-2-(6-oxo-5,7-diazaspiro[2.5]octan-5-yl)-2,3-dihydro-1H-inden-5-yl)amino)-3-oxopropan-2-yl)-1-methyl-1H-pyrazole-5-carboxamide] | 0.0739 µM | 0.0572 µM |
| CNC(=O)C1(N2CC3(CC3)CNC2=O)Cc2ccc(NC(=O)[C@@H](NC(=O)c3c(F)cnn3C)C3CCCCC3)cc2C1 (stereo partly drawn) [Example 167, N-((1S)-1-cyclohexyl-2-((2-(methylcarbamoyl)-2-(6-oxo-5,7-diazaspiro[2.5]octan-5-yl)-2,3-dihydro-1H-inden-5-yl)amino)-2-oxoethyl)-4-fluoro-1-methyl-1H-pyrazole-5-carboxamide] | 0.127 µM | 0.22 µM |
| CC(C)[C@@H]1CN(C2(C(=O)N[C@@H](CO)C3CCCCC3)Cc3ccc(NC(=O)[C@@H](NC(=O)c4ccnn4C)C4CCCCC4)cc3C2)C(=O)N1 (stereo partly drawn) [Example 122, N-((1S)-1-cyclohexyl-2-((2-(((R)-1-cyclohexyl-2-hydroxyethyl)carbamoyl)-2-((R)-4-isopropyl-2-oxoimidazolidin-1-yl)-2,3-dihydro-1H-inden-5-yl)amino)-2-oxoethyl)-1-methyl-1H-pyrazole-5-carboxamide] | 0.01 µM | 0.013 µM |
| Cc1nonc1C(=O)N[C@H](C(=O)Nc1ccc2c(c1)CC(C(=O)Nc1cc(F)ccc1Cl)(N1C[C@@H](C(C)C)NC1=O)C2)C(C1CC1)C1CC1 (stereo partly drawn) [Example 278, N-((2S)-1-((2-((2-chloro-5-fluorophenyl)carbamoyl)-2-((R)-4-isopropyl-2-oxoimidazolidin-1-yl)-2,3-dihydro-1H-inden-5-yl)amino)-3,3-dicyclopropyl-1-oxopropan-2-yl)-4-methyl-1,2,5-oxadiazole-3-carboxamide] | 0.333 µM | 0.122 µM |
| CCc1ccccc1NC(=O)C1(N2C[C@@H](C(C)C)NC2=O)Cc2ccc(NC(=O)[C@@H](NC(=O)c3nonc3C)C(C3CC3)C3CC3)cc2C1 (stereo partly drawn) [Example 289, N-((2S)-1,1-dicyclopropyl-3-((2-((2-ethylphenyl)carbamoyl)-2-((R)-4-isopropyl-2-oxoimidazolidin-1-yl)-2,3-dihydro-1H-inden-5-yl)amino)-3-oxopropan-2-yl)-4-methyl-1,2,5-oxadiazole-3-carboxamide] | 0.0245 µM | 0.0814 µM |
